# Measurements reported in US9873709B2 (priority 2013, dated 2018).
# Structures can show the parent of a compound that is named as a salt. Where two headings read alike, the source gives them in different places.
# Tests used:
# [1] = target: T1, isolated recombinant JAK2 kinase domain (Homo sapiens (Human), UniProt O60674); assay: biochemical
# [2] = test system: JAK1-dependent STAT6 phosphorylation downstream of IL-13 stimulation in TF-1 human erythroleukemia cells; assay: cells; conditions: TF-1, read-out: IL-13-pSTAT6 IC50
# [3] = test system: JAK1-dependent STAT6 phosphorylation downstream of IL-13 stimulation in BEAS-2B human bronchial epithelial cells; assay: cells; conditions: read-out: IL13-pSTAT6 BEASB2B IC50
# [4] = target: T1, isolated recombinant JAK2 kinase domain; conditions: read-out: JAK2 Ki; isolated recombinant JAK2 kinase domain, 25 μM ATP
# [5] = test system: JAK1-dependent STAT6 phosphorylation downstream of IL-13 stimulation in TF-1 human erythroleukemia cells; conditions: read-out: IL-13-pSTAT6 IC50, TF-1 cells
# T1 sequence (O60674 849-1124): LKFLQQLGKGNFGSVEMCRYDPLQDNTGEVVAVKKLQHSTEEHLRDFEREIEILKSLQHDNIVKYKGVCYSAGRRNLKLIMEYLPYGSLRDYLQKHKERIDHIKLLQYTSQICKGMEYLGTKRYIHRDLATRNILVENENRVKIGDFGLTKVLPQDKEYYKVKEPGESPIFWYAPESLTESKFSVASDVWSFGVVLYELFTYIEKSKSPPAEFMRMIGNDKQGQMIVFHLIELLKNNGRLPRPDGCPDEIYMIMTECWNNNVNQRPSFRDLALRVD
SMILES,Ki [1],IC50 [2],Ki [4],IC50 [3],IC50 [5]
"NCCNC(=O)c1ccc(Nc2nc3c(N4CCC(O)(c5ccc(Cl)cc5)CC4)cccn3n2)cc1 [Example 1-175, N-(2-aminoethyl)-4-[[8-[4-(4-chlorophenyl)-4-hydroxy-1-piperidyl]-[1,2,4]triazolo[1,5-a]pyridin-2-yl]amino]benzamide]",0.92 nM,189 nM,,,
"O=C(c1ccc(Nc2nc3c(N4CCC(O)(c5ccc(Cl)cc5)CC4)cccn3n2)cc1)N1CCNCC1 [Example 1-177, [4-[[8-[4-(4-chlorophenyl)-4-hydroxy-1-piperidyl]-[1,2,4]triazolo[1,5-a]pyridin-2-yl]amino]phenyl]-piperazin-1-yl-methanone]",1.51 nM,23.2 nM,,,
CCOC(=O)CC1(c2ccc(Cl)cc2)CCN(c2cccn3nc(Nc4ccc(C(=O)N(C)C5CCN(C)CC5)cc4)nc23)CC1 [Example 1-254],,89.9 nM,0.39 nM,661 nM,
"CN1CCC(N(C)C(=O)c2ccc(Nc3nc4c(N5CCC(CC(F)F)(c6ccc(Cl)cc6)CC5)cccn4n3)cc2)CC1 [Example 1-256, 4-([8-[4-(4-chlorophenyl)-4-(2,2-difluoroethyl)piperidin-1-yl]-[1,2,4]triazolo[1,5-a]pyridin-2-yl]amino)-N-methyl-N-(1-methylpiperidin-4-yl)benzamide]",,56.3 nM,0.69 nM,426 nM,
"CN1CCCC12CN(C(=O)c1ccc(Nc3nc4c(N5CCC(CO)(c6ccc(Cl)cc6)CC5)cccn4n3)cc1)C2 [Example 1-274, [4-[[8-[4-(4-chlorophenyl)-4-(hydroxymethyl)-1-piperidyl]-[1,2,4]triazolo[1,5-a]pyridin-2-yl]amino]phenyl]-(5-methyl-2,5-diazaspiro[3.4]octan-2-yl)methanone]",,7.9 nM,0.17 nM,28.9 nM,
"CNC1CN(C(=O)c2ccc(Nc3nc4c(N5CCC(CO)(c6ccc(Cl)cc6)CC5)cccn4n3)cc2)C1 [Example 1-283, [4-[[8-[4-(4-chlorophenyl)-4-(hydroxymethyl)-1-piperidyl]-[1,2,4]triazolo[1,5-a]pyridin-2-yl]amino]phenyl]-[3-(methylamino)azetidin-1-yl]methanone]",0.15 nM,15.5 nM,,31.3 nM,
CN1CCC(N(C)C(=O)c2ccc(Nc3nc4c(N5C[C@@H]6C[C@](O)(c7ccccc7)C[C@@H]6C5)cccn4n3)cc2)CC1 [Example 1-292],18.5 nM,,,,
"CN1CCC(N(C)C(=O)c2ccc(Nc3nc4c(C5=CCN(C(=O)C6CCC(C#N)CC6)CC5)cccn4n3)cc2)CC1 (stereo not shown) [Example 2-285, 4-[[8-[1-(4-cyanocyclohexanecarbonyl)-3,6-dihydro-2H-pyridin-4-yl]-[1,2,4]triazolo[1,5-a]pyridin-2-yl]amino]-N-methyl-N-(1-methyl-4-piperidyl)benzamide]",,,,,739 nM
"CNC(=O)C1CN(C(C)C)CCN1C(=O)c1ccc(Nc2nc3c(C4=CCN(C(=O)CCC(F)(F)F)CC4)cccn3n2)cc1 (stereo not shown) [Example 2-327, 4-isopropyl-N-methyl-1-[4-[[8-[1-(4,4,4-trifluorobutanoyl)-3,6-dihydro-2H-pyridin-4-yl]-[1,2,4]triazolo[1,5-a]pyridin-2-yl]amino]benzoyl] piperazine-2-carboxamide]",,,,,19.9 nM

# Second part, led by results:
Ki [1],IC50 [2],Ki [4],SMILES,IC50 [3],IC50 [5]
63.2 nM,,,"CC(=O)NC1CCN(c2cccn3nc(Nc4ccc(C(=O)N(C)C5CCN(C)CC5)cc4)nc23)CC1 [Example 1-9, 4-[[8-(4-acetamido-1-piperidyl)-[1,2,4]triazolo[1,5-a]pyridin-2-yl]amino]-N-methyl-N-(1-methyl-4-piperidyl)benzamide; hydrochloride]",,
74.7 nM,> 10000 nM,,"CC(=O)N1CCN(c2cccn3nc(Nc4ccc(C(=O)N(C)C5CCN(C)CC5)cc4)nc23)CC1 [Example 1-10, 4-[[8-(4-acetylpiperazin-1-yl)-[1,2,4]triazolo[1,5-a]pyridin-2-yl]amino]-N-methyl-N-(1-methyl-4-piperidyl)benzamide]",,
6.28 nM,235 nM,,"CN1CCC(N(C)C(=O)c2ccc(Nc3nc4c(N5CCC(C#N)CC5)cccn4n3)cc2)CC1 [Example 1-11, 4-[[8-(4-cyano-1-piperidyl)-[1,2,4]triazolo[1,5-a]pyridin-2-yl]amino]-N-methyl-N-(1-methyl-4-piperidyl)benzamide]",,
77.5 nM,3400 nM,,"CN1CCC(N(C)C(=O)c2ccc(Nc3nc4c(N5CCCCC5)cccn4n3)cc2)CC1 [Example 1-12, N-methyl-N-(1-methyl-4-piperidyl)-4-[[8-(1-piperidyl)-[1,2,4]triazolo[1,5-a]pyridin-2-yl]amino]benzamide; dihydrochloride]",,
13.1 nM,494 nM,,"CN1CCC(N(C)C(=O)c2ccc(Nc3nc4c(N5CCN(c6ccccc6)CC5)cccn4n3)cc2)CC1 [Example 1-13, N-methyl-N-(1-methyl-4-piperidyl)-4-[[8-(4-phenylpiperazin-1-yl)-[1,2,4]triazolo[1,5-a]pyridin-2-yl]amino]benzamide]",,
32 nM,,,"CN1CCC(N(C)C(=O)c2ccc(Nc3nc4c(N5CCC(O)(c6cccnc6)CC5)cccn4n3)cc2)CC1 [Example 1-19, 4-[[8-[4-hydroxy-4-(3-pyridyl)-1-piperidyl]-[1,2,4]triazolo[1,5-a]pyridin-2-yl]amino]-N-methyl-N-(1-methyl-4-piperidyl)benzamide]",,
47.4 nM,,,"CN1CCC(N(C)C(=O)c2ccc(Nc3nc4c(N5CCC(C(C)(C)O)CC5)cccn4n3)cc2)CC1 [Example 1-29, 4-[[8-[4-(1-hydroxy-1-methyl-ethyl)-1-piperidyl]-[1,2,4]triazolo[1,5-a]pyridin-2-yl]amino]-N-methyl-N-(1-methyl-4-piperidyl)benzamide]",,
6.7 nM,76.3 nM,,"CN1CCC(N(C)C(=O)c2ccc(Nc3nc4c(N5CCC(O)(c6ccc(F)cc6)CC5)cccn4n3)cc2)CC1 [Example 1-37, 4-[[8-[4-(4-fluorophenyl)-4-hydroxy-1-piperidyl]-[1,2,4]triazolo[1,5-a]pyridin-2-yl]amino]-N-methyl-N-(1-methyl-4-piperidyl)benzamide]",,
5.59 nM,152 nM,,"CC(C)c1ccc(C2(O)CCN(c3cccn4nc(Nc5ccc(C(=O)N(C)C6CCN(C)CC6)cc5)nc34)CC2)cc1 [Example 1-38, 4-[[8-[4-hydroxy-4-(4-isopropylphenyl)-1-piperidyl]-[1,2,4]triazolo[1,5-a]pyridin-2-yl]amino]-N-methyl-N-(1-methyl-4-piperidyl)benzamide]",,
